{"source": "patent US10980765B2", "about": "“Isothiocyanatostilbenes as a novel method and product for treating cancer” (BOARD OF SUPERVISORS OF LOUISIANA STATE UNIVERSITY AND …, priority 2015, dated 2021)", "key": {"[1]": {"test_system": "Cells", "experiment": "2D proliferation (Cell Titer Blue)", "type": "cell-based", "conditions": "24-72 hours", "experimental": "A TO timepoint was also measured. For each timepoint, cells were exposed to Cell Titer Blue reagent (Promega) for 1 hour at 37° C. 5% CO2. Experiments were performed with quadruplicate replicates. Fluorescence was measured using a BioTek Synergy 4 plate reader with Gen5 software."}, "[2]": {"experiment": "Xenograft study, tolerability (body weight, clinical observation)", "type": "in vivo, Athymic nude mice", "description": "Data are shown as average+S.E.M., *p<0.05.\nXenograft studies: All animal experiments were approved by the Institutional Animal Care and Use Committee, University of Louisiana at Monroe, and were handled in strict accordance with good animal practice as defined by the NIH guidelines. Athymic nude mice (Foxn1^nu/Foxn1^+, 4-5 weeks, female) were purchased from Harlan (Indianapolis, Ind.). The mice had free access to standard pellet food and water. The animals were acclimated to animal house facility conditions at a temperature of 18-25° C., with a relative humidity of 55 to 65% and a 12 h light/dark cycle, for one week prior to the experiments. MDA-MB-231/GFP human breast cancer cells were cultured and resuspended in serum-free DMEM medium (20 μl). After anesthesia, cell suspensions (1×10^6 cells/20 μl) were inoculated subcutaneously into the second mammary gland fat pad just beneath the nipple of each animal to generate orthotopic breast tumors. […] The mice were monitored by measuring tumor volume, body weight, and clinical observation. Tumor volume (V) was calculated by V=L/2×W^2, where L was the length and W was the width of tumors. The results are presented as average ±S.E.M. Differences among various treatment groups were determined by the analysis of variance (ANOVA) followed by Dunnett's test using PASW statistics version 18. […]"}, "[3]": {"target": "T1, IGFR (Homo sapiens, UniProt P08069)", "T1 construct": "endogenous in cells; host or cells: DU145", "T1 sequence (P08069 31-1367)": "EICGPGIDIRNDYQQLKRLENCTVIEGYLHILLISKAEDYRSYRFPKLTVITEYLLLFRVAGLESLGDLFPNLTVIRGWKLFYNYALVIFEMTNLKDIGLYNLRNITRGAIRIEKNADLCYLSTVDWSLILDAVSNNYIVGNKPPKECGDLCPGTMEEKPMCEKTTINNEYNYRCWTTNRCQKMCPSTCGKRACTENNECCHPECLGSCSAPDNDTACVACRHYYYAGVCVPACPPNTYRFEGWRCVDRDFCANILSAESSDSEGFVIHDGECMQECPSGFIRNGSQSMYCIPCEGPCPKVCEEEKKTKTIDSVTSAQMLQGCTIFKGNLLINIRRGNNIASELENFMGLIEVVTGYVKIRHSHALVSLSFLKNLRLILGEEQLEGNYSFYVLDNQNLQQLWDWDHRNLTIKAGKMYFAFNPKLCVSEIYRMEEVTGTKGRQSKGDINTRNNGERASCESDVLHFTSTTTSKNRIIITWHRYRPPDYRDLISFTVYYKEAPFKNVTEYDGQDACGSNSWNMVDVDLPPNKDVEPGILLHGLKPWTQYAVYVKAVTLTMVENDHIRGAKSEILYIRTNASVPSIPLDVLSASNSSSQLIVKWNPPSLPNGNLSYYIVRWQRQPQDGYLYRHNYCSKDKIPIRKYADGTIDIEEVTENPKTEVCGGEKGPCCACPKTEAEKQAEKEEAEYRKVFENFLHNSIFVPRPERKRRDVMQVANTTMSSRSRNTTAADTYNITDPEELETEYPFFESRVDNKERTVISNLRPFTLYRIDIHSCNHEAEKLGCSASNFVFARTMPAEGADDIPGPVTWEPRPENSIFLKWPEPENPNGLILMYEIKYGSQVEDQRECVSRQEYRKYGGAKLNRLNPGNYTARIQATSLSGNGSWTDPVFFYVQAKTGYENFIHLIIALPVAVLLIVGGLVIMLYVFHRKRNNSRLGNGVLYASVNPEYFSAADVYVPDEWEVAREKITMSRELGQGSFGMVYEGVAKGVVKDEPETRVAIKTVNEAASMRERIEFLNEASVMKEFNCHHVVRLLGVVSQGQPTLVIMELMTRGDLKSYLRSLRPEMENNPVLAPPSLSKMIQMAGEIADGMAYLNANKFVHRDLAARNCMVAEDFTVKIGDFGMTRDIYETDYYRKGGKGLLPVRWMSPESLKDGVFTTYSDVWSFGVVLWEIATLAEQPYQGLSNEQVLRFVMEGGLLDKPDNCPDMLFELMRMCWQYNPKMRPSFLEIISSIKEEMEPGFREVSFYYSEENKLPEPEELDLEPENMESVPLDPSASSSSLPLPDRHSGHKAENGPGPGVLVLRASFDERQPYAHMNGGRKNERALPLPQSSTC", "experiment": "Western blot of IGFR activation by IGF in DU145 cells", "type": "cell-based", "conditions": "4 μM DIDS or 25 μM H2DIDS; DU145, 100 ng/ml IGF 20 min", "experimental": "(§1) Western blot analysis: Cells were grown to ˜70% confluency prior to treatment. Cells were serum-starved in serum-free media for 30 minutes prior to treatment in complete media or serum-free media for the indicated times. Cell lysates were collected in Laemmli (125 mM Tris, 4% SDS, 0.01% bromophenol blue, 30% sucrose) containing 0.5% β-mercaptoethanol and boiled ˜8 minutes. Primary antibodies include: phospho-c-Met (Y1234/1235), phospho-Akt (S473), pEGFR […], pIGF-IRβ (Y1135/1136) (Cell Signaling Technology; Beverly, Mass.); α-actin (Sigma-Aldrich), c-Met (C-28) (Life Technologies). Secondary antibodies include: horseradish peroxidase-conjugated anti-rabbit and anti-mouse (GE Healthcare; Pittsburgh, Pa.). ECL 2 was used for chemiluminescent detection (Thermo Scientific; Rockford, Ill.). Densitometry was calculated using ImageJ (NIH)."}, "[4]": {"target": "c-Met (Homo sapiens, UniProt P08581)", "sequence (P08581 25-1390)": "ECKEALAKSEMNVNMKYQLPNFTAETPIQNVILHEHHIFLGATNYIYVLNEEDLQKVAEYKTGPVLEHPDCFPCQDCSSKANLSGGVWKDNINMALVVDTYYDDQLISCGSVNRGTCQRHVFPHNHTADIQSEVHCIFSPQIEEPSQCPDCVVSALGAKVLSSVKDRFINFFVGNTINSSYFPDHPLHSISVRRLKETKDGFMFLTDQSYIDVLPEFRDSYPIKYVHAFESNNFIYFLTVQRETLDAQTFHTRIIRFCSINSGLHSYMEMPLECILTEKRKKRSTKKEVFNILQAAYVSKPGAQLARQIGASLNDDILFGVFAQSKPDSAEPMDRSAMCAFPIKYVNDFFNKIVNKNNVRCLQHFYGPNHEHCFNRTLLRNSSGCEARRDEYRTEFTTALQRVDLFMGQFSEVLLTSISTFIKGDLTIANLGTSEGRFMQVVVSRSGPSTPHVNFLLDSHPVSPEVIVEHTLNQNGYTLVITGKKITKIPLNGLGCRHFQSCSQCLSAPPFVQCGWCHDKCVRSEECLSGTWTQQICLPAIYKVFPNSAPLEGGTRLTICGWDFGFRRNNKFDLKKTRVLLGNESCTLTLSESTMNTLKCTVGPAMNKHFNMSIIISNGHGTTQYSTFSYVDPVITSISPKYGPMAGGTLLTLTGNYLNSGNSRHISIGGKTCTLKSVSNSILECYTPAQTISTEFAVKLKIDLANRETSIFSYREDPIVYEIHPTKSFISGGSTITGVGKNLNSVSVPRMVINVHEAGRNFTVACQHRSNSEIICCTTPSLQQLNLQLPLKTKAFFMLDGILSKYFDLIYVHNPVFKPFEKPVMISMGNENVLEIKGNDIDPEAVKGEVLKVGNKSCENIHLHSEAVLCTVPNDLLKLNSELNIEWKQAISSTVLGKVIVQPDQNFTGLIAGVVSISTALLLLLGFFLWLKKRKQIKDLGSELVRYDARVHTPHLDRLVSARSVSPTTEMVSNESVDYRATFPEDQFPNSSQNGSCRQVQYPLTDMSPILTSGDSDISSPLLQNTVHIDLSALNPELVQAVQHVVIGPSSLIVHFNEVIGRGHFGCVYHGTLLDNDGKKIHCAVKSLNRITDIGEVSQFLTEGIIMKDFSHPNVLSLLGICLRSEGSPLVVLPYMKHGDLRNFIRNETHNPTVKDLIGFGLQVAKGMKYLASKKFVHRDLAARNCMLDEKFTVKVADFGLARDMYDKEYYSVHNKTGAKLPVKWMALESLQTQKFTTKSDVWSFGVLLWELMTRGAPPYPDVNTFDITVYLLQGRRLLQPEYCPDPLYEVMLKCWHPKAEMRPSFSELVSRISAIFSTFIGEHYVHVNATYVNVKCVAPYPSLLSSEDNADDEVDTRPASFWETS", "experiment": "Western blot of c-Met activation (phospho-c-Met) by HGF in cancer cell lines", "type": "cell-based", "parameters": "endogenous in cells; host or cells: DU145, PC3, MDA-MB-231, HCC1806", "experimental": "Western blot was used to analyze pMet expression. […] Western blot was used to analyze the indicated proteins.\n(§2) Western blot was used to analyze the indicated proteins.\nas §2, §1"}, "[5]": {"test_system": "succinic dehydrogenase", "conditions": "cited from earlier work"}, "[6]": {"test_system": "protein translocation across the ER membrane", "conditions": "cited from earlier work"}, "[7]": {"test_system": "DU145 spheroids", "experiment": "3D spheroid proliferation", "type": "cell-based", "conditions": "33 ng/mL HGF, Matrigel, 72 hours", "experimental": "Data are shown as the percent change in growth from T=0 to T=72 hours. For each of the six independent variables in each bar graph, a representative image at the 72 hour time point is shown. The six corresponding images below each respective bar graph\n3D spheroid proliferation: Prior to seeding, cells were incubated with 2.5 ng/μl CellTracker Red (Life Technologies) in complete DMEM lacking Phenol Red for 5 minutes at room temperature then centrifuged at 1000 RPM for 5 minutes. […] The mixture of cells, treatments, and Matrigel in complete media was seeded at 2000 cells/well in a 96 well plate. The plate was centrifuged at 1000 RPM for 3 minutes to collect the cells into the bottom of the plate. Spheroid growth was imaged for up to 80 hours and analyzed for average red object area using the IncuCyte™ ZOOM software. Data are shown as percent change in spheroid growth between TO and […] with HGF normalized to 100% change in growth. Images were captured by the IncuCyte™ ZOOM imaging system and representative 10× images are shown."}}}
{"smiles": "O=S(=O)(O)c1cc(N=C=S)ccc1C=Cc1ccc(N=C=S)cc1S(=O)(=O)O", "note": "[DIDS, 4,4′-Diisothiocyanatostilbene-2,2′-disulfonic acid]", "values": [{"measurement": "proliferation in complete media in 2D assay", "setting": "[1]; complete media", "result": "minimal effects"}, {"measurement": "serum-free proliferation in 2D assay", "setting": "[1]; serum-free media", "result": "minimal effects"}, {"measurement": "signs of toxicity", "setting": "[2]; 5 mg/kg intraperitoneally, ˜2 weeks, mice", "result": "No obvious signs of toxicity"}, {"measurement": "body weight compared to DMSO control", "setting": "[2]; 5 mg/kg then 10 mg/kg i.p., 3×/week", "result": "no change in body weight"}, {"measurement": "IGFR activation", "setting": "[3]", "result": "do not significantly reduce"}, {"measurement": "reduction of c-Met activation", "setting": "[4]; 8 μM compound, DU145 cells, 33 ng/ml HGF 20 min, serum-free, Western blot densitometry", "result": "~90", "unit": "%"}, {"measurement": "pMet levels, compound given post HGF treatment", "setting": "[4]; DU145, 33 ng/ml HGF 20 min, wash, then 4 μM DIDS 20 or 60 minutes", "result": "reduced pMet levels"}, {"measurement": "reversibility of c-Met inhibition after wash", "setting": "[4]; DU145, 4 μM DIDS 20 min, one wash, recovery from 20 minutes up to 1 hour, then 33 ng/ml HGF", "result": "does not irreversibly bind c-Met"}, {"measurement": "effective concentrations for reducing c-Met activation in 10% FBS", "setting": "[4]; DU145 cells, 33 ng/ml HGF 20 min, 10% FBS RPMI, compared with serum-free", "result": "slightly higher effective concentrations"}, {"measurement": "c-Met inhibitory effective doses", "setting": "[4]; multiple cancer cell lines (summary)", "result": "low micromolar range"}, {"measurement": "concentration reducing activity of succinic dehydrogenase", "setting": "[5]", "result": "low micromolar concentrations"}, {"measurement": "concentration inhibiting protein translocation across the ER membrane", "setting": "[6]", "result": "≥ 400", "unit": "µM"}, {"measurement": "lowest concentration with some inhibitory effects on HGF-induced spheroid growth", "setting": "[7]", "result": 40, "unit": "nM"}, {"measurement": "decrease of HGF-induced DU145 spheroid growth", "setting": "[7]; 5 μM compound", "result": "~60", "unit": "%"}]}
